Assay results taken from patent US9980943B2, “Methods of treating muscular dystrophy” (BOARD OF REGENTS OF THE NEVADA SYSTEM OF HIGHER EDUCATION, …, priority 2013, dated 2018).

Tests used:
Assay type in all cases: cell-based, mouse
[1] = system: β-galactosidase in CMV-LacZ C2C12 myoblasts; experiment: CMV-LacZ secondary screen in C2C12 myoblasts (β-Gal stabilizing assay); settings: CMV-LacZ C2C12 myoblasts
How it was run: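 C2C12 myoblasts stably carrying a linearized CMV-driven LacZ construct, clone chosen by β-gal level in the myoblast FDG assay. Compounds tested in 96-well dose-response at 0.5, 1, 5, 10, 20 and 40 μM, N=2 replicates per point, to detect β-gal stabilization.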

[2] = system: α7 integrin (LacZ reporter in α7+/LacZ myotubes); experiment: Myotube α7 integrin FDG assay (Burkin assay in myotubes, 96-well); settings: myotubes
[3] = system: β-galactosidase in CMV-LacZ C2C12 myotubes; experiment: CMV-LacZ secondary screen in C2C12 myotubes (β-Gal stabilizing assay); settings: C2C12 CMV-LacZ myotubes, fold relative to DMSO
How it was run: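 CMV-LacZ C2C12 line (clonal, FDG-screened); myoblasts/myotubes dosed 0.5–40 μM (0.5, 1, 5, 10, 20, 40 μM); n=2 per point; β-gal stabilization read-out.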

[4] = system: α7 integrin (LacZ reporter in α7βgal+/− myoblasts); experiment: Myoblast α7+/LacZ integrin FDG assay (Burkin assay in myoblasts, 96-well); settings: α7+/LacZ myoblasts, 96-well

## O=S(=O)(NC(=NC1CCCCC1)c1ccccc1F)c1ccccc1 [MLS000947910-01]
[1]; 0.5 uM
  CMV-LACZ in Myoblasts (β-galactosidase activity relative to DMSO): 1.0094
[1]; 1 uM
  CMV-LACZ in Myoblasts (β-galactosidase activity relative to DMSO): 0.9250
[1]; 5 uM
  CMV-LACZ in Myoblasts (β-galactosidase activity relative to DMSO): 0.9452
[1]; 10 uM
  CMV-LACZ in Myoblasts (β-galactosidase activity relative to DMSO): 1.0379
[1]; 20 uM
  CMV-LACZ in Myoblasts (β-galactosidase activity relative to DMSO): 1.0870
[1]; 40 uM
  CMV-LACZ in Myoblasts (β-galactosidase activity relative to DMSO): 1.0500
[2]; 0.5 uM
  Burkin Assay in Myotubes, α7 integrin LacZ reporter signal relative to DMSO: 1.134
[2]; 1 uM
  Burkin Assay in Myotubes, α7 integrin LacZ reporter signal relative to DMSO: 1.101
[2]; 5 uM
  Burkin Assay in Myotubes, α7 integrin LacZ reporter signal relative to DMSO: 1
[2]; 10 uM
  Burkin Assay in Myotubes, α7 integrin LacZ reporter signal relative to DMSO: 1.035
[2]; 20 uM
  Burkin Assay in Myotubes, α7 integrin LacZ reporter signal relative to DMSO: 0.9628
[2]; 40 uM
  Burkin Assay in Myotubes, α7 integrin LacZ reporter signal relative to DMSO: 0.9515
[3]; 0.5 uM
  CMV-LACZ in Myotubes, signal relative to DMSO: 1.0333
[3]; 1 uM
  CMV-LACZ in Myotubes, signal relative to DMSO: 0.8348
[3]; 5 uM
  CMV-LACZ in Myotubes, signal relative to DMSO: 1.2332
[3]; 10 uM
  CMV-LACZ in Myotubes, signal relative to DMSO: 0.8930
[3]; 20 uM
  CMV-LACZ in Myotubes, signal relative to DMSO: 1.0165
[3]; 40 uM
  CMV-LACZ in Myotubes, signal relative to DMSO: 1.0082
[4]; 0.5 uM
  Burkin Assay in Myoblasts, signal relative to DMSO: 1.024
[4]; 1 uM
  Burkin Assay in Myoblasts, signal relative to DMSO: 1.188
[4]; 5 uM
  Burkin Assay in Myoblasts, signal relative to DMSO: 1.033
[4]; 10 uM
  Burkin Assay in Myoblasts, signal relative to DMSO: 1.0429
[4]; 20 uM
  Burkin Assay in Myoblasts, signal relative to DMSO: 1.047
[4]; 40 uM
  Burkin Assay in Myoblasts, signal relative to DMSO: 1.018

## CC1CCCCC1NC(=O)CSc1nnc(COc2ccc(Cl)cc2)o1 (stereo not drawn) [MLS000948055-01]
[1]; 0.5 uM
  CMV-LACZ in Myoblasts (β-galactosidase activity relative to DMSO): 0.7540
[1]; 1 uM
  CMV-LACZ in Myoblasts (β-galactosidase activity relative to DMSO): 0.9674
[1]; 5 uM
  CMV-LACZ in Myoblasts (β-galactosidase activity relative to DMSO): 1.0787
[1]; 10 uM
  CMV-LACZ in Myoblasts (β-galactosidase activity relative to DMSO): 1.0993
[1]; 20 uM
  CMV-LACZ in Myoblasts (β-galactosidase activity relative to DMSO): 0.5407
[1]; 40 uM
  CMV-LACZ in Myoblasts (β-galactosidase activity relative to DMSO): 0.5522
[2]; 0.5 uM
  Burkin Assay in Myotubes, α7 integrin LacZ reporter signal relative to DMSO: 1.067
[2]; 1 uM
  Burkin Assay in Myotubes, α7 integrin LacZ reporter signal relative to DMSO: 1.054
[2]; 5 uM
  Burkin Assay in Myotubes, α7 integrin LacZ reporter signal relative to DMSO: 0.9053
[2]; 10 uM
  Burkin Assay in Myotubes, α7 integrin LacZ reporter signal relative to DMSO: 0.8264
[2]; 20 uM
  Burkin Assay in Myotubes, α7 integrin LacZ reporter signal relative to DMSO: 0.98
[2]; 40 uM
  Burkin Assay in Myotubes, α7 integrin LacZ reporter signal relative to DMSO: 0.7514
[3]; 0.5 uM
  CMV-LACZ in Myotubes, signal relative to DMSO: 1.0895
[3]; 1 uM
  CMV-LACZ in Myotubes, signal relative to DMSO: 0.9638
[3]; 5 uM
  CMV-LACZ in Myotubes, signal relative to DMSO: 1.2519
[3]; 10 uM
  CMV-LACZ in Myotubes, signal relative to DMSO: 1.1022
[3]; 20 uM
  CMV-LACZ in Myotubes, signal relative to DMSO: 1.2212
[3]; 40 uM
  CMV-LACZ in Myotubes, signal relative to DMSO: 1.0753
[4]; 0.5 uM
  Burkin Assay in Myoblasts, signal relative to DMSO: 1.328
[4]; 1 uM
  Burkin Assay in Myoblasts, signal relative to DMSO: 1.053
[4]; 5 uM
  Burkin Assay in Myoblasts, signal relative to DMSO: 1.136
[4]; 10 uM
  Burkin Assay in Myoblasts, signal relative to DMSO: 0.8986
[4]; 20 uM
  Burkin Assay in Myoblasts, signal relative to DMSO: 0.8213
[4]; 40 uM
  Burkin Assay in Myoblasts, signal relative to DMSO: 0.5867

## CCOC(=O)C1(Cc2cccc(Cl)c2)CCCN(C(=O)CCSC)C1 (stereo not drawn) [MLS001000299-01]
[1]; 0.5 uM
  CMV-LACZ in Myoblasts (β-galactosidase activity relative to DMSO): 1.4188
[1]; 1 uM
  CMV-LACZ in Myoblasts (β-galactosidase activity relative to DMSO): 1.2745
[1]; 5 uM
  CMV-LACZ in Myoblasts (β-galactosidase activity relative to DMSO): 0.9901
[1]; 10 uM
  CMV-LACZ in Myoblasts (β-galactosidase activity relative to DMSO): 0.8248
[1]; 20 uM
  CMV-LACZ in Myoblasts (β-galactosidase activity relative to DMSO): 1.1522
[1]; 40 uM
  CMV-LACZ in Myoblasts (β-galactosidase activity relative to DMSO): 1.0107
[2]; 0.5 uM
  Burkin Assay in Myotubes, α7 integrin LacZ reporter signal relative to DMSO: 0.9225
[2]; 1 uM
  Burkin Assay in Myotubes, α7 integrin LacZ reporter signal relative to DMSO: 1.006
[2]; 5 uM
  Burkin Assay in Myotubes, α7 integrin LacZ reporter signal relative to DMSO: 0.8764
[2]; 10 uM
  Burkin Assay in Myotubes, α7 integrin LacZ reporter signal relative to DMSO: 0.9163
[2]; 20 uM
  Burkin Assay in Myotubes, α7 integrin LacZ reporter signal relative to DMSO: 0.793
[2]; 40 uM
  Burkin Assay in Myotubes, α7 integrin LacZ reporter signal relative to DMSO: 0.5578
[3]; 0.5 uM
  CMV-LACZ in Myotubes, signal relative to DMSO: 0.6411
[3]; 1 uM
  CMV-LACZ in Myotubes, signal relative to DMSO: 1.3158
[3]; 5 uM
  CMV-LACZ in Myotubes, signal relative to DMSO: 1.0658
[3]; 10 uM
  CMV-LACZ in Myotubes, signal relative to DMSO: 0.9029
[3]; 20 uM
  CMV-LACZ in Myotubes, signal relative to DMSO: 0.9544
[3]; 40 uM
  CMV-LACZ in Myotubes, signal relative to DMSO: 1.0744
[4]; 0.5 uM
  Burkin Assay in Myoblasts, signal relative to DMSO: 1.089
[4]; 1 uM
  Burkin Assay in Myoblasts, signal relative to DMSO: 0.9953
[4]; 5 uM
  Burkin Assay in Myoblasts, signal relative to DMSO: 0.9552
[4]; 10 uM
  Burkin Assay in Myoblasts, signal relative to DMSO: 0.975
[4]; 20 uM
  Burkin Assay in Myoblasts, signal relative to DMSO: 0.9397
[4]; 40 uM
  Burkin Assay in Myoblasts, signal relative to DMSO: 0.7738
